Data published in US11400106B2, “Methods for inhibiting microbe growth” (priority 2018, dated 2022).
Where two headings read alike, the source gives them in different places. Marks after values point to notes of the source that are not given here.

Assays:
E. coli = assay: microbe, parasite or virus in culture; format: cell-based, Escherichia coli
Method: (§1) In the following experiments, bacterial cells were cultured in 96-well microtiter plates in cation-adjusted Mueller-Hinton Broth (MHB) for 18 h at 37° C. The main strains used were E. coli (K-12 BW25113) (placed in stationary incubator) and S. aureus (Newman Strain) (incubated at 250 r.p.m). Knockout strains (ΔtolcC and ΔychM) were used from the Keio knockout collection (Baba et al., Construction of Escherichia coli K-12 in-frame, single-gene knockout mutants: the Keio collection. Mol Syst Biol 2, 2006 0008, doi:10.1038/msb4100050 (2006)). For MIC determination and checkerboard analyses, Clinical & Laboratory Standards Institute (CLSI) protocol was used. […] DiSC3 loading of S. aureus cells was performed as previously described (Farha et al., Collapsing the proton motive force to identify synergistic combinations against Staphylococcus aureus. Chemistry & biology 20, 1168-1178, doi:10.1016/j.chembiol.2013.07.006 (2013)). CCCP concentration of 20 μM was used. pH adjustments were made by addition of HCl or NaOH. INT assay and ATP bioluminescence assays were performed as previously described (Farha et al., Collapsing the proton motive force to identify synergistic combinations against Staphylococcus aureus. Chemistry & biology 20, 1168-1178, doi:10.1016/j.chembiol.2013.07.006 (2013)). For chemical-genomic studies, the Keio library was grown overnight in cation-adjusted MHB broth, in 384-well plates. From these, treatment plates (25 mM sodium bicarbonate, or a sterile water control) were inoculated and grown for 15 hours at 37° C., in a stationary incubator. Data was normalized according to Mangat et al (Mangat et al., Rank ordering plate data facilitates data visualization and normalization in high-throughput screening. J Biomol Screen 19, 1314-1320, doi:10.1177/1087057114534298 (2014)), with gene products and GO terms mined from EcoCyc. The GFP promoter library (Keseler et al., EcoCyc: fusing model organism databases with systems biology. Nucleic Acids Res 41, D605-612, doi:10.1093/nar/gks1027 (2013)) was grown for 18 hours at ambient temperature with the same inoculation strategy as with the Keio collection. The analysis pipeline of Zaslaver et al (Zaslaver et al., A comprehensive library of fluorescent transcriptional reporters for Escherichia coli. Nat Methods 3, 623-628, doi:10.1038/nmeth895 (2006)) was used to generate maps of promoter activity, from which lists of promoters with increased or decreased activity were compiled.
(§2) Fold enhancement in MICs in the media supplemented with sodium bicarbonate is represented by a positive fold, whereas suppression of activity is represented by a negative fold.
(§3) The effect of sodium bicarbonate on the activity of additional antibacterial agents was investigated. Clinical isolates of various bacteria were obtained from the ATCC and the IHMA.
(§4) The effect of sodium bicarbonate on the activity of cationic antiseptic agents was investigated. Clinical isolates of various bacteria were obtained from the ATCC and the IHMA.

S. aureus = assay: microbe, parasite or virus in culture; conditions: for effect of 25 mM sodium bicarbonate on antibacterial activity: result in words; for MIC, S. aureus, MHB / MIC, S. aureus, MHB−: MHB in the absence of sodium bicarbonate; for MIC, S. aureus, MHB+: MHB in the presence of 25 mM sodium bicarbonate; for MIC in MHB / MIC in MHB + 25 mM bicarbonate: S. aureus (Newman strain) (MSSA)
Method: as §1, §2, §3, §4

[1] = antiseptic agents, fold shift in MIC
[2] = antibiotic agents, MHB in the absence of sodium bicarbonate
[3] = antibiotic agents, fold shift in MIC, MHB− vs MHB+
[4] = antibiotic agents, MHB in the presence of 25 mM sodium bicarbonate

Row | Compound | Fold, E. coli (E. coli) | MIC, E. coli, MHB+ (E. coli) | MIC, E. coli, MHB− (E. coli; [2]) | Fold, E. coli (E. coli; [3]) | MIC, S. aureus, MHB− (S. aureus; antibiotic agents) | MIC, S. aureus, MHB+ (S. aureus; antibiotic agents) | Fold, S. aureus (S. aureus; [3]) | other results
1 | COc1cc(Cc2cnc(N)nc2N)cc(OC)c1OC [trimethoprim] | – | – | – | – | – | – | – | effect of 25 mM sodium bicarbonate on antibacterial activity (E. coli): remained largely unchanged; effect of 25 mM sodium bicarbonate on antibacterial activity (S. aureus; S. aureus): remained largely unchanged
2 | Benzalkonium chloride | 4 | 8 μg of antimicrobial agent/mL of buffer | – | – | – | – | – | MIC, E. coli, MHB (E. coli): 32 μg of antimicrobial agent/mL of buffer; MIC, S. aureus, MHB (S. aureus; antiseptic agents): 0.5 μg of antimicrobial agent/mL of buffer; MIC, S. aureus, MHB+ (S. aureus; antiseptic agents): 0.25 μg of antimicrobial agent/mL of buffer; Fold, S. aureus (S. aureus; [1]): 2
3 | Colistin | – | 0.5 μg of antimicrobial agent/mL of buffer | 0.5 μg of antimicrobial agent/mL of buffer | 1 | >128 μg of antimicrobial agent/mL of buffer | >128 μg of antimicrobial agent/mL of buffer | 1 | –
4 | Furadinozoline | – | – | 4 μg of antimicrobial agent/mL of buffer | 1 | 32 μg of antimicrobial agent/mL of buffer | 16 μg of antimicrobial agent/mL of buffer | 2 | MIC, E. coli, MHB+ (E. coli; [4]): 4 μg of antimicrobial agent/mL of buffer
5 | Gramicidin | – | – | >128 μg of antimicrobial agent/mL of buffer | 1 | 1 μg of antimicrobial agent/mL of buffer | 0.25 μg of antimicrobial agent/mL of buffer | 4 | MIC, E. coli, MHB+ (E. coli; [4]): >128 μg of antimicrobial agent/mL of buffer
6 | Hyaluronic acid | – | – | – | – | – | – | – | enhancement of antimicrobial activity in the presence of bicarbonate (E. coli): 64 fold; MIC in MHB (S. aureus): 4 µg/mL; MIC in MHB + 25 mM bicarbonate (S. aureus): 0.0625 µg/mL; enhancement of antimicrobial activity in the presence of bicarbonate (S. aureus; S. aureus, 25 mM sodium bicarbonate): 64 fold
7 | Lysozyme | – | – | – | – | – | – | – | effect of 25 mM sodium bicarbonate on antibacterial activity (E. coli; E. coli, result in words): enhanced; MIC in MHB (S. aureus): >256** μg/mL; MIC in MHB + 25 mM bicarbonate (S. aureus): >256** μg/mL
8 | Neomycin | 4 | – | – | – | – | – | – | Fold, S. aureus (S. aureus): 4; MIC, S. aureus, MHB− (S. aureus): 2; MIC, S. aureus, MHB+ (S. aureus): 0.5
9 | Nisin | – | – | >128 μg of antimicrobial agent/mL of buffer | 1 | >128 μg of antimicrobial agent/mL of buffer | >128 μg of antimicrobial agent/mL of buffer | 1 | MIC, E. coli, MHB+ (E. coli; [4]): >128 μg of antimicrobial agent/mL of buffer
10 | Polyhexanide | 2 | 0.5 μg of antimicrobial agent/mL of buffer | – | – | – | – | – | MIC, E. coli, MHB (E. coli): 1 μg of antimicrobial agent/mL of buffer; MIC, S. aureus, MHB (S. aureus; antiseptic agents): 0.5 μg of antimicrobial agent/mL of buffer; MIC, S. aureus, MHB+ (S. aureus; antiseptic agents): 0.25 μg of antimicrobial agent/mL of buffer; Fold, S. aureus (S. aureus; [1]): 2
11 | Polymyxin B | −2 | – | – | – | – | – | – | Fold, S. aureus (S. aureus): 8; MIC, S. aureus, MHB− (S. aureus): 256; MIC, S. aureus, MHB+ (S. aureus): 32; effect of 25 mM sodium bicarbonate on antibacterial activity (S. aureus; S. aureus): enhanced
12 | Polyvinylpyrrolidone iodine complex | – | – | – | – | – | – | – | MIC, E. coli, MHB (E. coli; antiseptic agents, MHB in the absence of sodium bicarbonate): >128 μg of antimicrobial agent/mL of buffer; MIC, E. coli, MHB+ (E. coli; antiseptic agents, MHB in the presence of 25 mM sodium bicarbonate): >128 μg of antimicrobial agent/mL of buffer; Fold, E. coli (E. coli; [1]): 1; MIC, S. aureus, MHB (S. aureus; antiseptic agents): >128 μg of antimicrobial agent/mL of buffer; MIC, S. aureus, MHB+ (S. aureus; antiseptic agents): >128 μg of antimicrobial agent/mL of buffer; Fold, S. aureus (S. aureus; [1]): 1
13 | Teicoplanin | – | 128 μg of antimicrobial agent/mL of buffer | 128 μg of antimicrobial agent/mL of buffer | 1 | 1 μg of antimicrobial agent/mL of buffer | 2 μg of antimicrobial agent/mL of buffer | −2 | –
